Experimental data from ChEMBL document CHEMBL3885861, “Open TG-GATES”.

Species: Rattus norvegicus
Assay: Open TG-GATES - Regimen: Daily Repeat
Format: toxicity, organism-based, Sprague-Dawley
Design: regimen Daily Repeat, gender Male, age 6 weeks
Details: in vivo, po, 0 mg/kg, route gavage, dose level Control; for APTT / Bas / Eos / Fbg / Hb / Ht / Lym / MCHC / MCV / Mono / Neu / PT / Plat / RBC / Ret / WBC: tissue Blood; for KIDNEY_L / KIDNEY_R / KIDNEY_TOTAL: tissue Kidney; for LIVER: tissue Liver; for ALP / ALT / AST / BUN / CRE / Ca / Cl / DBIL / GLC / IP / K / LDH / Na / PL / RALB / TBIL / TC / TG / TP / gamma-GTP: tissue Plasma

For `CS(=O)(=O)Nc1ccc([N+](=O)[O-])cc1Oc1ccccc1` [NIMESULIDE], the TERMINAL_BW (72 h, time 3 day) was 220.1 g, the APTT (72 h, time 3 day) was 17.3 s and the Bas (72 h, time 3 day) was 0%. It also gave an Eos (72 h, time 3 day) of 1%, a Fbg (72 h, time 3 day) of 199.4 mg/dL and a Hb (72 h, time 3 day) of 13.5 g/dL. For the same compound, the Ht (72 h, time 3 day) was 39.9%, the Lym (72 h, time 3 day) was 78% and the MCHC (72 h, time 3 day) was 34%. For the same compound, the MCV (72 h, time 3 day) was 62.8 fL, the Mono (72 h, time 3 day) was 6.2% and the Neu (72 h, time 3 day) was 14.8%. The PT (72 h, time 3 day) was 11.7 s, the Plat (72 h, time 3 day) was 127.5 x10_4/uL and the RBC (72 h, time 3 day) was 635.6 x10_4/ul. It also gave a Ret (72 h, time 3 day) of 9.2%, a WBC (72 h, time 3 day) of 97.8 x10_2/uL and a KIDNEY_L (72 h, time 3 day) of 1 g. It also gave a KIDNEY_R (72 h, time 3 day) of 1 g, a KIDNEY_TOTAL (72 h, time 3 day) of 2 g and an LIVER (72 h, time 3 day) of 10.6 g. For the same compound, the ALP (72 h, time 3 day) was 996 IU/L, the ALT (72 h, time 3 day) was 36.8 IU/L and the AST (72 h, time 3 day) was 63.6 IU/L. It also gave a BUN (72 h, time 3 day) of 17.6 mg/dL, a CRE (72 h, time 3 day) of 0.6 mg/dL and a Ca (72 h, time 3 day) of 10.7 mg/dL. It also gave a Cl (72 h, time 3 day) of 105 meq/L, a DBIL (72 h, time 3 day) of 0.064 mg/dL and a GLC (72 h, time 3 day) of 203 mg/dL. It also gave an IP (72 h, time 3 day) of 7.5 mg/dL, a K (72 h, time 3 day) of 4.7 meq/L and an LDH (72 h, time 3 day) of 81.6 IU/L. For the same compound, the Na (72 h, time 3 day) was 139.4 meq/L, the PL (72 h, time 3 day) was 132.2 mg/dL and the RALB (72 h, time 3 day) was 4 g/dL. It also gave a TBIL (72 h, time 3 day) of 0.3 mg/dL, a TC (72 h, time 3 day) of 69 mg/dL and a TG (72 h, time 3 day) of 72.4 mg/dL. It also gave a TP (72 h, time 3 day) of 5.5 g/dL, a gamma-GTP (72 h, time 3 day) of 1.4 IU/L and a TERMINAL_BW ([…], time 7 day) of 249.3 g. The TERMINAL_BW ([…], time 14 day) was 309.7 g, the TERMINAL_BW ([…], time 28 day) was 405 g and the APTT ([…], time 7 day) was 18.3 s. It also gave a Bas ([…], time 7 day) of 0%, an Eos ([…], time 7 day) of 1% and a Fbg ([…], time 7 day) of 220 mg/dL. For the same compound, the Hb ([…], time 7 day) was 14.2 g/dL, the Ht ([…], time 7 day) was 41.6% and the Lym ([…], time 7 day) was 77.2%. It also gave an MCHC ([…], time 7 day) of 34.1%, an MCV ([…], time 7 day) of 64.8 fL and a Mono ([…], time 7 day) of 9.4%. It also gave a Neu ([…], time 7 day) of 12.6%, a PT ([…], time 7 day) of 11.3 s and a Plat ([…], time 7 day) of 117.6 x10_4/uL. For the same compound, the RBC ([…], time 7 day) was 642.4 x10_4/ul, the Ret ([…], time 7 day) was 7.2% and the WBC ([…], time 7 day) was 134.4 x10_2/uL. It also gave an APTT ([…], time 14 day) of 17.4 s, a Bas ([…], time 14 day) of 0% and an Eos ([…], time 14 day) of 1.2%. It also gave a Fbg ([…], time 14 day) of 234.2 mg/dL, a Hb ([…], time 14 day) of 14.7 g/dL and a Ht ([…], time 14 day) of 43.2%. The Lym ([…], time 14 day) was 79%, the MCHC ([…], time 14 day) was 34% and the MCV ([…], time 14 day) was 62.7 fL. The Mono ([…], time 14 day) was 6.2%, the Neu ([…], time 14 day) was 13.8% and the PT ([…], time 14 day) was 11.8 s. It also gave a Plat ([…], time 14 day) of 118.2 x10_4/uL, an RBC ([…], time 14 day) of 689.8 x10_4/ul and a Ret ([…], time 14 day) of 6.7%. The WBC ([…], time 14 day) was 118 x10_2/uL, the APTT ([…], time 28 day) was 17.4 s and the Bas ([…], time 28 day) was 0%. For the same compound, the Eos ([…], time 28 day) was 1.4%, the Fbg ([…], time 28 day) was 213.8 mg/dL and the Hb ([…], time 28 day) was 15.1 g/dL. The Ht ([…], time 28 day) was 44.6%, the Lym ([…], time 28 day) was 80.6% and the MCHC ([…], time 28 day) was 33.9%. It also gave an MCV ([…], time 28 day) of 58.6 fL, a Mono ([…], time 28 day) of 5.8% and a Neu ([…], time 28 day) of 12.4%. It also gave a PT ([…], time 28 day) of 11.7 s, a Plat ([…], time 28 day) of 126.5 x10_4/uL and an RBC ([…], time 28 day) of 761 x10_4/ul. It also gave a Ret ([…], time 28 day) of 2.7%, a WBC ([…], time 28 day) of 120.2 x10_2/uL and a KIDNEY_L ([…], time 7 day) of 1.1 g. It also gave a KIDNEY_R ([…], time 7 day) of 1.1 g, a KIDNEY_TOTAL ([…], time 7 day) of 2.2 g and a KIDNEY_L ([…], time 14 day) of 1.4 g. For the same compound, the KIDNEY_R ([…], time 14 day) was 1.3 g, the KIDNEY_TOTAL ([…], time 14 day) was 2.7 g and the KIDNEY_L ([…], time 28 day) was 1.4 g. It also gave a KIDNEY_R ([…], time 28 day) of 1.4 g, a KIDNEY_TOTAL ([…], time 28 day) of 2.8 g and an LIVER ([…], time 7 day) of 11.6 g. It also gave an LIVER ([…], time 14 day) of 14.5 g, an LIVER ([…], time 28 day) of 16.5 g and an ALP ([…], time 7 day) of 876.4 IU/L. For the same compound, the ALT ([…], time 7 day) was 35.4 IU/L, the AST ([…], time 7 day) was 64.2 IU/L and the BUN ([…], time 7 day) was 19.2 mg/dL. It also gave a CRE ([…], time 7 day) of 0.6 mg/dL, a Ca ([…], time 7 day) of 10.5 mg/dL and a Cl ([…], time 7 day) of 105.2 meq/L. It also gave a DBIL ([…], time 7 day) of 0.03 mg/dL, a GLC ([…], time 7 day) of 197.4 mg/dL and an IP ([…], time 7 day) of 7 mg/dL. The K ([…], time 7 day) was 5 meq/L, the LDH ([…], time 7 day) was 91.8 IU/L and the Na ([…], time 7 day) was 140.4 meq/L. The PL ([…], time 7 day) was 153.8 mg/dL, the RALB ([…], time 7 day) was 4 g/dL and the TBIL ([…], time 7 day) was 0.3 mg/dL. The TC ([…], time 7 day) was 79.2 mg/dL, the TG ([…], time 7 day) was 108.6 mg/dL and the TP ([…], time 7 day) was 5.7 g/dL. It also gave a gamma-GTP ([…], time 7 day) of 1.4 IU/L, an ALP ([…], time 14 day) of 898.6 IU/L and an ALT ([…], time 14 day) of 28.4 IU/L. The AST ([…], time 14 day) was 60 IU/L, the BUN ([…], time 14 day) was 17.4 mg/dL and the CRE ([…], time 14 day) was 0.5 mg/dL. For the same compound, the Ca ([…], time 14 day) was 10.7 mg/dL, the Cl ([…], time 14 day) was 106.4 meq/L and the DBIL ([…], time 14 day) was 0.002 mg/dL. For the same compound, the GLC ([…], time 14 day) was 199.4 mg/dL, the IP ([…], time 14 day) was 7.2 mg/dL and the K ([…], time 14 day) was 4.7 meq/L. It also gave an LDH ([…], time 14 day) of 54 IU/L, a Na ([…], time 14 day) of 140.6 meq/L and a PL ([…], time 14 day) of 141 mg/dL. The RALB ([…], time 14 day) was 4 g/dL, the TBIL ([…], time 14 day) was 0.3 mg/dL and the TC ([…], time 14 day) was 65.4 mg/dL. It also gave a TG ([…], time 14 day) of 124.4 mg/dL, a TP ([…], time 14 day) of 5.9 g/dL and a gamma-GTP ([…], time 14 day) of 1 IU/L. The ALP ([…], time 28 day) was 627.4 IU/L, the ALT ([…], time 28 day) was 29 IU/L and the AST ([…], time 28 day) was 61.8 IU/L. For the same compound, the BUN ([…], time 28 day) was 20.2 mg/dL, the CRE ([…], time 28 day) was 0.6 mg/dL and the Ca ([…], time 28 day) was 10.5 mg/dL. The Cl ([…], time 28 day) was 108.2 meq/L, the DBIL ([…], time 28 day) was 0.006 mg/dL and the GLC ([…], time 28 day) was 200 mg/dL. For the same compound, the IP ([…], time 28 day) was 6.6 mg/dL, the K ([…], time 28 day) was 4.7 meq/L and the LDH ([…], time 28 day) was 78 IU/L. It also gave a Na ([…], time 28 day) of 143.8 meq/L, a PL ([…], time 28 day) of 152 mg/dL and an RALB ([…], time 28 day) of 4.1 g/dL. The TBIL ([…], time 28 day) was 0.3 mg/dL, the TC ([…], time 28 day) was 73.2 mg/dL and the TG ([…], time 28 day) was 160.4 mg/dL. It also gave a TP ([…], time 28 day) of 6 g/dL and a gamma-GTP ([…], time 28 day) of 1.8 IU/L.
